Where two headings read alike, the source gives them in different places.
Key:
[1] = DPPH free radical scavenging assay; details: 1.0 mL sample 0.5 mg/mL + 2 mL DPPH 0.2 mg/mL, 30 min, 517 nm
Method: The DPPH assay was carried out to estimate the antioxidant potential among all the compounds [29]. Then, 2 mL (0.2 mg/mL in methyl alcohol) of DPPH was mixed with 1.0 mL (0.5 mg/mL in methyl alcohol) of the sample solution in a test tube. All the reaction tubes were covered with aluminum foil and kept aside for 30 min to complete the reaction. The activity was carried out in a dark room. […] A UV-visible spectrophotometer was employed to observe a reduction in the concentration of free radicals at 517 nm. The absorbance of the control (1.0 mL methanol + 2 mL DPPH solution) was also measured. All samples were evaluated in a triplicate manner, and the mean results were recorded. The standard antioxidant (ascorbic acid) was evaluated and set as a reference/standard. The percentage of inhibition (%) was calculated using the following formula in terms of scavenging activity(S):S (%) = [(Ab − Aa)/Ab] × 100(1) where Ab = Absorbance of control; and Aa = Absorbance of the test sample

[2] = test system: thoracic aorta segments; experiment: Inhibition of phenylephrine-induced contraction on isolated aorta rings; design: species or system male Wistar rats; details: compounds 10^−4 M in organ bath, phenylephrine 10^−6 M, n = 5; for inhibition at 100 µM: Rattus norvegicus, read-out: %ge inh. of Phenylephrine Cont. (±SEM)
Method: (§1) Cervical disruption was used to eliminate male Wistar rats weighing 200 g and 300 g. The thoracic aorta segments (3 mm to 5 mm) were slightly pressed and […]. The tissues were placed in an organ bath filled with 10 mL of Krebs-Henseleit solution and kept at 37 °C. Then 95% oxygen and 5% carbon dioxide were passed through the above-mentioned solution. To record organ responses to phenylephrine, (10^−6 M) (Sigma, St. Louis, MO, USA) simulated contractions; isometric transducers and Gemini recorders (Ugo Basile, Varese, Italy) were assembled. Aortic rings were recon traced with phenylephrine (10^−6 M) and subjected to acetylcholine (10^−6 M) for recording endothelium-dependent relaxations (EDR). All synthesized compounds along with the standard (valsartan) were mixed in DMSO; whereas synthesized derivatives of concentration 10^−4 M were added in an organ bath. In conscious rats, systolic blood pressure was recorded by applying the tail-cuff method. Wistar rats of 200 g to 250 g weight were selected and divided into groups of five individuals. The chemicals were injected intraperitoneally at a dosage of 80 mg/kg body weight. The tail-cuff and a piezoelectric pulse sensor were coupled to a blood pressure analyzer and were positioned at the base of the tail (May 9610, Ankara, Turkey).
(§2) All results were presented as the mean of SEM. (n = 5) and test compounds were employed for statistical significance determination.

[3] = test system: conscious rats; experiment: Antihypertensive effect, systolic blood pressure by tail-cuff method in conscious rats; format: in vivo, Wistar rats; details: 80 mg/kg intraperitoneally, n = 5, Control 108.28 ± 6.87, DMSO 81.10 ± 3.21
Method: as §1, §2

[4] = molecular target: urease (Canavalia ensiformis, UniProt P07374); experiment: biochemical; format: biochemical; details: for folds more urease inhibition than standard Thiourea: relative to Thiourea IC50
Sequence of urease (P07374 whole entry, looked up): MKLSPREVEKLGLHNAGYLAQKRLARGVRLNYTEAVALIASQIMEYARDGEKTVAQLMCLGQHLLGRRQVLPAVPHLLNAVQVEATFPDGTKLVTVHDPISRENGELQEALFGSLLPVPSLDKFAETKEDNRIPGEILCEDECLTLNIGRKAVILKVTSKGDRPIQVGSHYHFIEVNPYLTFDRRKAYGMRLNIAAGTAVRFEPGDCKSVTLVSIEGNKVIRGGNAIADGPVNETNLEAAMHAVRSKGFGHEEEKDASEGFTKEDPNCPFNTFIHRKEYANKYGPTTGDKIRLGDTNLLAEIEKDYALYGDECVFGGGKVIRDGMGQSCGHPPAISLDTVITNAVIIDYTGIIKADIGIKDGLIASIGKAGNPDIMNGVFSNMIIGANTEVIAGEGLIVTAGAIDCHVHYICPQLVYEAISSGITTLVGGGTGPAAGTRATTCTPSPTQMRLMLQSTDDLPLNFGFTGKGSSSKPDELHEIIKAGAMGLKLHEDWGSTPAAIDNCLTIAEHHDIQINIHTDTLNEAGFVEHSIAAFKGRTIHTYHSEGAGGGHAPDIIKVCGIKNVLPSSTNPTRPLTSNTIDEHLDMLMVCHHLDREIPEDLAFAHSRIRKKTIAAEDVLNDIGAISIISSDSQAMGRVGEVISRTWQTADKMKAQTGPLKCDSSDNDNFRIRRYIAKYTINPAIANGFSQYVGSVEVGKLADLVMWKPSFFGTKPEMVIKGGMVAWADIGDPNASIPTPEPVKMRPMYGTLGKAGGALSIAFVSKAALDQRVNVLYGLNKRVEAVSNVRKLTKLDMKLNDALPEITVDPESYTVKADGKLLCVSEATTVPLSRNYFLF
Method: The activity performed was an improved procedure of the Berthelot assay. […] For 5 min, the mixture was incubated at 37 °C. Each well in a 96-well plate received 40 µL of urea stock solution (20 mM); incubated for 10 min at 37 °C. Afterwards, 115 µL phenol hypochlorite (45 µL phenol + 70 µL alkali) per well was added. Furthermore, all the contents were incubated for 10 min at 37 °C. Absorbance at 625 nm was measured. Using the provided formula, the % of enzyme-inhibition and IC-50 values were computed Inhibition (%age) = [Control − test/100(control)] where Control = [Total enzyme activity minus inhibitor]. The test is the test compounds’ activity

[5] = test system: Bacillus pumilus; experiment: Antibacterial agar-well diffusion; format: cell-based; details: sample 100 mg/5 mL in DMSO; ceftriaxone sodium 20 mg/10 mL; 37 °C, 24 h; 6 mm wells
Method: (§3) After sterilizing the Mueller Hinton agar medium on plates in an autoclave and allowing it to cool to roughly 45 °C, a 100 µL standard inoculum was aseptically mixed, chilled till 37 °C, and 6 mm wells were formed in the inoculated plates. The volume of 100 μL (100 mg/5 mL in DMSO), ceftriaxone sodium (20 mg/10 mL in DMSO) as a positive control, and pure DMSO as a negative control; 30 μL of the sample solution was incorporated into these wells. These primed plates were incubated at 37 °C for 24 h prior to record inhibitory zones in millimeters.

[6] = test system: Escherichia coli; experiment: Antibacterial agar-well diffusion; format: cell-based; details: sample 100 mg/5 mL in DMSO; ceftriaxone sodium 20 mg/10 mL; 37 °C, 24 h; 6 mm wells
Method: as §3

[7] = test system: Pseudomonas aeruginosa; experiment: Antibacterial agar-well diffusion; format: cell-based; details: sample 100 mg/5 mL in DMSO; ceftriaxone sodium 20 mg/10 mL; 37 °C, 24 h; 6 mm wells
Method: as §3

[8] = test system: Staphylococcus aureus; experiment: Antibacterial agar-well diffusion; format: cell-based; details: sample 100 mg/5 mL in DMSO; ceftriaxone sodium 20 mg/10 mL; 37 °C, 24 h; 6 mm wells
Method: as §3

[9] = urease, pH 7.0, 37 °C, read-out: IC50 ± SEM

CCCCC(=O)N(Cc1ccc(-c2ccccc2-c2nn[nH]n2)cc1)C(C(=O)O)C(C)C (stereo not shown) [AV0, 2-(N-((2′-(2H-tetrazole-5-yl)-[1,1′-biphenyl]-4yl)-methyl)-pentanamido)-3-methyl butanoic acid, reference compound]
%Age Inhibition ± SEM [1]: 64.6± 0.50%
inhibition at 100 µM [2]: 65.3 ± 3.6%
Mean of Systolic Blood Pressure ± SEM [3]: 82.41 ± 4.32
IC50 [4]: 3210 ± 950 nM
Zone of Inhibition Gram +ve Bacteria B.pumilus Mean ± SEM [5]: 11.36 ± 0.49 millimeters
Zone of Inhibition Gram -Ve Bacteria E. coli Mean ± SEM [6]: 10.40 ± 0.69 millimeters
Zone of Inhibition Gram -Ve Bacteria P. aeruginosa Mean ± SEM [7]: 12.43 ± 0.67 millimeters
Zone of Inhibition Gram +ve Bacteria S. aureus Mean ± SEM [8]: 12.13 ± 0.72 millimeters

CCCCC(=O)N(Cc1ccc(-c2ccccc2-c2nn[nH]n2)cc1)C(C(=O)OC(C(=O)c1ccccc1)c1ccccc1)C(C)C (stereo not shown) [AV1, 2-oxo-1,2-diphenylethyl 2-(N-((2′-(2H-tetrazol-5yl)-[1,1′-biphenyl]-4-yl)methyl)pentanamido)-3methyl butanoate]
%Age Inhibition ± SEM [1]: 73.9 ± 0.49%
%ge inh. of Phenylephrine Cont. (±SEM) [2]: 67.3 ± 4.7%
Mean of Systolic Blood Pressure ± SEM [3]: 81.78 ± 3.87
IC50 [4, 9]: 2560 ± 320 nM
Zone of Inhibition Gram +ve Bacteria B.pumilus Mean ± SEM [5]: 10.33 ± 0.40 millimeters
Zone of Inhibition Gram -Ve Bacteria E. coli Mean ± SEM [6]: 11.06 ± 0.55 millimeters
Zone of Inhibition Gram -Ve Bacteria P. aeruginosa Mean ± SEM [7]: 10.36 ± 0.28 millimeters
Zone of Inhibition Gram +ve Bacteria S. aureus Mean ± SEM [8]: 10.83 ± 0.31 millimeters

CCCCC(=O)N(Cc1ccc(-c2ccccc2-c2nn[nH]n2)cc1)C(C(=O)Oc1ccc(C=O)cc1OC)C(C)C (stereo not shown) [AV2, 4-formyl-2-methoxyphenyl 2(N-((2′-(2H-tetrazole-5-yl)-[1,1′-biphenyl]-4yl)methyl)pentanamido)-3-methyl butanoate]
%Age Inhibition ± SEM [1]: 96.0 ± 0.49%
%ge inh. of Phenylephrine Cont. (±SEM) [2]: 76.4 ± 6.8%
folds more urease inhibition than standard Thiourea [4]: 4 folds
IC50 [4, 9]: 280 ± 150 nM
Zone of Inhibition Gram +ve Bacteria B.pumilus Mean ± SEM [5]: 12.26 ± 0.69 millimeters
Zone of Inhibition Gram -Ve Bacteria E. coli Mean ± SEM [6]: 11.90 ± 0.26 millimeters
Zone of Inhibition Gram -Ve Bacteria P. aeruginosa Mean ± SEM [7]: 09.33 ± 0.58 millimeters
Zone of Inhibition Gram +ve Bacteria S. aureus Mean ± SEM [8]: 12.90 ± 0.81 millimeters

CCCCC(=O)N(Cc1ccc(-c2ccccc2-c2nnn[nH]2)cc1)C(C(=O)Oc1ccc(N)cc1)C(C)C (stereo not shown) [AV4, 4-aminophenyl 2-(N-((2′-(2H-tetrazol-5yl) -[1,1′-biphenyl]-4yl)methyl)pentanamido)-3methyl butanoate]
inhibition at 100 µM [2]: 69.4 ± 5.4%
Mean of Systolic Blood Pressure ± SEM [3]: 79.56 ± 2.78
IC50 [4]: 3190 ± 950 nM
Zone of Inhibition Gram +ve Bacteria B.pumilus Mean ± SEM [5]: 10.46 ± 0.67 millimeters
Zone of Inhibition Gram -Ve Bacteria E. coli Mean ± SEM [6]: 10.63 ± 0.40 millimeters
Zone of Inhibition Gram -Ve Bacteria P. aeruginosa Mean ± SEM [7]: 10.31 ± 0.47 millimeters
Zone of Inhibition Gram +ve Bacteria S. aureus Mean ± SEM [8]: 10.16 ± 0.17 millimeters

CCCCC(=O)N(Cc1ccc(-c2ccccc2-c2nn[nH]n2)cc1)C(C(=O)Oc1ccc(Cl)cc1Cl)C(C)C (stereo not shown) [AV5, 2,4-dichlorophenyl 2-(N-((2′-(2H-tetrazol-5yl)-[1,1′-biphenyl]-4 yl)methyl)pentanamido)-3methyl butanoate]
%Age Inhibition ± SEM [1]: 73.1 ± 0.49%
%ge inh. of Phenylephrine Cont. (±SEM) [2]: 66.2 ± 4.2%
Mean of Systolic Blood Pressure ± SEM [3]: 81.92 ± 5.21
folds more urease inhibition than standard Thiourea [4]: 3 folds
IC50 [4, 9]: 1290 ± 120 nM
Zone of Inhibition Gram +ve Bacteria B.pumilus Mean ± SEM [5]: 11.23 ± 0.61 millimeters
Zone of Inhibition Gram -Ve Bacteria E. coli Mean ± SEM [6]: 11.36 ± 0.63 millimeters
Zone of Inhibition Gram -Ve Bacteria P. aeruginosa Mean ± SEM [7]: 09.36 ± 0.85 millimeters
Zone of Inhibition Gram +ve Bacteria S. aureus Mean ± SEM [8]: 13.50 ± 0.50 millimeters

CCCCC(=O)N(Cc1ccc(-c2ccccc2-c2nn[nH]n2)cc1)C(C(=O)Oc1ccc(C=O)cc1)C(C)C (stereo not shown) [AV6, 4-formylphenyl2-(N-((2′-(2H-tetrazol-5-yl)-[1, 1′-biphenyl]-4yl)methyl)pentanamido)-3methyl butanoate]
%Age Inhibition ± SEM [1]: 76.3 ± 0.46%
%ge inh. of Phenylephrine Cont. (±SEM) [2]: 67.4 ± 5.1%
Mean of Systolic Blood Pressure ± SEM [3]: 81.21 ± 3.21
IC50 [4, 9]: 2130 ± 970 nM
Zone of Inhibition Gram +ve Bacteria B.pumilus Mean ± SEM [5]: 11.76 ± 1.06 millimeters
Zone of Inhibition Gram -Ve Bacteria E. coli Mean ± SEM [6]: 09.73 ± 0.44 millimeters
Zone of Inhibition Gram -Ve Bacteria P. aeruginosa Mean ± SEM [7]: 10.73 ± 0.28 millimeters
Zone of Inhibition Gram +ve Bacteria S. aureus Mean ± SEM [8]: 12.86 ± 0.72 millimeters

CCCCC(=O)N(Cc1ccc(-c2ccccc2-c2nn[nH]n2)cc1)C(C(=O)Oc1ccc(CC(N)C(=O)O)cc1)C(C)C (stereo not shown) [AV7, 3-(4-((2-(N-((2′-(2H-tetrazol-5yl)-[1,1′-biphenyl]-4 yl)methyl)pentanamido)-3methylbutanoyl)oxy)phenyl)-2amino-propanoic acid]
inhibition at 100 µM [2]: 62.4 ± 2.7%
Mean of Systolic Blood Pressure ± SEM [3]: 85.61 ± 3.32
IC50 [4]: 8590 ± 1120 nM
Zone of Inhibition Gram +ve Bacteria B.pumilus Mean ± SEM [5]: 11.13 ± 0.80 millimeters
Zone of Inhibition Gram -Ve Bacteria E. coli Mean ± SEM [6]: 10.96 ± 0.18 millimeters
Zone of Inhibition Gram -Ve Bacteria P. aeruginosa Mean ± SEM [7]: 10.76 ± 0.53 millimeters
Zone of Inhibition Gram +ve Bacteria S. aureus Mean ± SEM [8]: 12.10 ± 0.37 millimeters

CCCCC(=O)N(Cc1ccc(-c2ccccc2-c2nn[nH]n2)cc1)C(C(=O)Oc1cc(C)ccc1C(C)C)C(C)C (stereo not shown) [AV8, 2-isopropyl-5-methylphenyl 2-(N-((2′-(2H-tetrazol-5yl)-[1, 1′-biphenyl]-4 yl)methyl)pentanamido)-3methyl butanoate]
%Age Inhibition ± SEM [1]: 95.3 ± 0.55%
%ge inh. of Phenylephrine Cont. (±SEM) [2]: 71.6 ± 6.5%
Mean of Systolic Blood Pressure ± SEM [3]: 71.56 ± 4.32
folds more urease inhibition than standard Thiourea [4]: 3 folds
Zone of Inhibition Gram +ve Bacteria B.pumilus Mean ± SEM [5]: 12.6 ± 0.60 millimeters
Zone of Inhibition Gram -Ve Bacteria E. coli Mean ± SEM [6]: 11.21 ± 0.41 millimeters
Zone of Inhibition Gram -Ve Bacteria P. aeruginosa Mean ± SEM [7]: 12.23 ± 0.27 millimeters
Zone of Inhibition Gram +ve Bacteria S. aureus Mean ± SEM [8]: 12.66 ± 1.06 millimeters

CCCCC(=O)N(Cc1ccc(-c2ccccc2-c2nn[nH]n2)cc1)C(C(=O)Oc1cccc2ccccc12)C(C)C (stereo not shown) [AV9, naphthalen-1-yl 2-(N-((2′-(2H-tetrazol-5-yl)-[1,1′-biphenyl]-4 yl)methyl)pentanamido)-3methyl butanoate]
%Age Inhibition ± SEM [1]: 83.8 ± 0.64%
%ge inh. of Phenylephrine Cont. (±SEM) [2]: 68.3 ± 4.7%
IC50 [4, 9]: 2260 ± 1040 nM
Zone of Inhibition Gram +ve Bacteria B.pumilus Mean ± SEM [5]: 12.76 ± 0.84 millimeters
Zone of Inhibition Gram -Ve Bacteria E. coli Mean ± SEM [6]: 09.73 ± 0.23 millimeters
Zone of Inhibition Gram -Ve Bacteria P. aeruginosa Mean ± SEM [7]: 10.90 ± 0.40 millimeters
Zone of Inhibition Gram +ve Bacteria S. aureus Mean ± SEM [8]: 14.40 ± 0.37 millimeters

O=C1O[C@H]([C@@H](O)CO)C(O)=C1O [Ascorbic acid, reference compound]
%Age Inhibition ± SEM [1]: 96.4 ± 0.52%

CO/N=C(\C(=O)N[C@@H]1C(=O)N2C(C(=O)O)=C(CSc3nc(=O)c(=O)[nH]n3C)CS[C@H]12)c1csc(N)n1 [Ceftriaxone, ceftriaxone sodium, reference compound]
Zone of Inhibition Gram +ve Bacteria B.pumilus Mean ± SEM [5]: 22.13 ± 0.14 millimeters
Zone of Inhibition Gram -Ve Bacteria E. coli Mean ± SEM [6]: 21.90 ± 0.18 millimeters
Zone of Inhibition Gram -Ve Bacteria P. aeruginosa Mean ± SEM [7]: 23.33 ± 0.43 millimeters
Zone of Inhibition Gram +ve Bacteria S. aureus Mean ± SEM [8]: 24.60 ± 0.51 millimeters

NC(N)=S [Standard Thiourea, Thiourea, reference compound]
IC50 [4, 9]: 4240 ± 130 nM

Reference: paper PMC9959676 (Molecules, 2023)
